The values below come from PMC6522510 (Nature Communications, 2019).

Among the test systems are CHRF288-11; M07e; U937.
What all share (test): Secondary dose-response HTS, Cell Titer Glo
What all share (format): cell-based, human
In general terms: Cellular ATP, detected with luciferase, serves as a proxy for viable cell number.

A further assay relates to MV4-11. To be noted: MV4-11.
A further assay has as its system CMS. The settings on record: for pEC50: Homo sapiens.
The subject of another assay is MOLM-13. To be noted: MOLM-13.
Another assay concerns CMK. The settings on record: CMK.
Another assay relates to ML2. To be noted: ML-2.
Setting [1] is: Homo sapiens, secondary high-throughput screen, read-out: average effective concentration, MV4-11.
The mark [2] stands for this setting: Homo sapiens, HTS, secondary high-throughput screen, CHRF288-11, read-out: average effective concentration, CHRF288-11.
The mark [3] stands for this setting: Homo sapiens, M-07e, secondary high-throughput screen, M07e, read-out: average effective concentration, M07e.
Setting [4] is: Homo sapiens, secondary high-throughput screen, read-out: average effective concentration, MOLM-13.
Setting [5] is: Homo sapiens, U-937, secondary high-throughput screen, U937, read-out: average effective concentration, U937.
Where [6] appears, read: Homo sapiens, secondary high-throughput screen, read-out: average effective concentration, ML-2.
The mark [7] stands for this setting: secondary high-throughput screen.
[8] abbreviates: secondary high-throughput screen, CHRF288-11.
Setting [9] is: secondary high-throughput screen, M07e.
[10] abbreviates: secondary high-throughput screen, CMS.
Setting [11] is: secondary high-throughput screen, U937.
The mark [12] stands for this setting: HTS, secondary high-throughput screen, CMS, read-out: average effective concentration, CMS.
The mark [13] stands for this setting: Homo sapiens, secondary high-throughput screen, read-out: average effective concentration, CMK.
Setting [14] is: secondary high-throughput screen, read-out: average effective concentration, CMK.

pEC50: −log10 of the molar value. Where two headings read alike, the source gives them in different places.

As to `C[C@H]1[C@@H](O)O[C@@H]2O[C@@]3(C)CC[C@H]4[C@H](C)CC[C@@H]1[C@@]24OO3` [DIHYDROARTEMISININ], the pEC50 in the assay with MV4-11 (setting [1]) was 5.55; in the assay with CHRF288-11 (setting [2]), 5.02; in the assay with M07e (setting [3]), below 5.00; with CMS (HTS, read-out: average effective concentration, CMS) it was below 5.00; in the assay on MOLM-13 (setting [4]), 5.08; with CMK (Homo sapiens, read-out: average effective concentration, CMK), below 5.00. The results for the pEC50 with U937 (setting [5]) and with ML2 (setting [6]) were 5.64 and 5.05, respectively.

As to `COc1cc2c(NC3CCN(C)CC3)nc(N3CCCN(C)CC3)nc2cc1OCCCN(C)C` [UNC0224], the “average effective concentration, MV4-11” value with MV4-11 (setting [7]) is “Inactive”. Also, the “average effective concentration, CHRF288-11” value with CHRF288-11 (setting [8]) is given as “Inactive”. The “average effective concentration, M07e” value in the assay with M07e (setting [9]) is “Inactive”. For the same compound, in the assay on CMS (setting [10]), the “average effective concentration, CMS” value is listed as “Inactive”. Further, the “average effective concentration, MOLM-13” value in the assay on MOLM-13 (setting [7]) is on record as “Inactive”. Further, the “average effective concentration, CMK” value in the assay with CMK (setting [7]) is “Inactive”. In the assay on U937 (setting [11]), the “average effective concentration, U937” value is recorded as “Inactive”. The “average effective concentration, ML-2” value in the assay with ML2 (setting [7]) is “Inactive”.

Take `CC(C)=CCC[C@]1(C)C=Cc2c(O)c3c(c(CC=C(C)C)c2O1)O[C@]12C(=C[C@@H]4C[C@H]1C(C)(C)O[C@@]2(C/C=C(/C)C(=O)O)C4=O)C3=O` [Gambogic acid, reference compound]: the pEC50 in the assay on MV4-11 (Homo sapiens, secondary HTS, 72 h, average of triplicate, read-out: EC50 MV4-11) was 6.77; with CHRF288-11 (Homo sapiens, secondary HTS, 72 h, average of triplicate, read-out: EC50 CHRF288-11) it was 6.66; with M07e (Homo sapiens, M-07e, secondary HTS, 72 h, average of triplicate, read-out: EC50 M07e), 6.62; with CMS (secondary HTS, 72 h, average of triplicate, read-out: EC50 CMS) it was 6.59; in the assay with MOLM-13 (Homo sapiens, secondary HTS, 72 h, average of triplicate, read-out: EC50 MOLM-13), 6.72; with CMK (Homo sapiens, secondary HTS, 72 h, average of triplicate, read-out: EC50 CMK) it was 6.44. Also, the pEC50 was 6.72 in the assay on U937 (Homo sapiens, U-937, secondary HTS, 72 h, average of triplicate, read-out: EC50 U937) and 6.82 in the assay on ML2 (Homo sapiens, secondary HTS, 72 h, average of triplicate, read-out: EC50 ML2).

As for `Nc1nc2nc[nH]c2c(=S)[nH]1` [THIOGUANINE], the pEC50 is 5.52 in the assay with MV4-11 (setting [1]); 5.46 in the assay with CHRF288-11 (setting [2]); below 5.00 in the assay with M07e (setting [3]); below 5.00 in the assay on CMS (setting [12]); 5.31 with MOLM-13 (setting [4]); 5.42 with CMK (setting [13]). The pEC50 in the assay on U937 (setting [5]) is below 5.00; in the assay with ML2 (setting [6]) it was 5.20.

On to 1-NA-PP1 [Compound 1-NA-PP1], for which the “average effective concentration, MV4-11” value with MV4-11 (setting [7]) is reported as “Inactive”. Also, the “average effective concentration, CHRF288-11” value in the assay with CHRF288-11 (setting [8]) was “Inactive”. For the same compound, the “average effective concentration, M07e” value in the assay on M07e (secondary high-throughput screen, […]) is “Inactive”. In addition, the “average effective concentration, CMS” value with CMS (setting [10]) is reported as “Inactive”. In addition, the “average effective concentration, MOLM-13” value in the assay on MOLM-13 (setting [7]) is “Inactive”. Also, the pEC50 in the assay with CMK (setting [14]) was 5.66. Moreover, in the assay on U937 (setting [11]), the “average effective concentration, U937” value is recorded as “Inactive”. Also, the “average effective concentration, ML-2” value with ML2 (setting [7]) was “Inactive”.

For SN-38, the pEC50 with MV4-11 (secondary high-throughput screen, read-out: average effective concentration, MV4-11) was 6.62; with CHRF288-11 (secondary high-throughput screen, CHRF288-11, read-out: average effective concentration, CHRF288-11), 8.02; with M07e (secondary high-throughput screen, M07e, read-out: average effective concentration, M07e), 7.36; in the assay on MOLM-13 (secondary high-throughput screen, read-out: average effective concentration, MOLM-13), 8.25; with CMK (setting [14]) it was 7.64; in the assay on U937 (secondary high-throughput screen, U937, read-out: average effective concentration, U937) it was 7.43. The pEC50 in the assay with ML2 (secondary high-throughput screen, read-out: average effective concentration, ML-2) was 8.60. In addition, the “average effective concentration, CMS” value in the assay with CMS (setting [10]) is given as “Inactive”.

With `N#CC(=C(/N)Sc1ccccc1N)/C(C#N)=C(/N)Sc1ccccc1N` [Compound U0126], the “average effective concentration, MV4-11” value in the assay on MV4-11 (setting [7]) is listed as “Inactive”. For the same compound, the “average effective concentration, CHRF288-11” value in the assay on CHRF288-11 (setting [8]) is “Inactive”. In addition, in the assay with M07e (setting [9]), the “average effective concentration, M07e” value is “Inactive”. The “average effective concentration, CMS” value in the assay with CMS (setting [10]) is given as “Inactive”. In the assay on MOLM-13 (setting [7]), the “average effective concentration, MOLM-13” value is recorded as “Inactive”. Moreover, the “average effective concentration, CMK” value in the assay on CMK (setting [7]) is on record as “Inactive”. For the same compound, in the assay on U937 (setting [11]), the “average effective concentration, U937” value was “Inactive”. The “average effective concentration, ML-2” value in the assay on ML2 (setting [7]) was “Inactive”.

With `Cc1cc(C2CCCCC2)n(O)c(=O)c1` [CICLOPIROX], the pEC50 is 5.28 in the assay on MV4-11 (setting [1]); 5.10 in the assay on CHRF288-11 (setting [2]); 5.11 in the assay with M07e (setting [3]); 5.41 with CMS (setting [12]); 5.47 in the assay on MOLM-13 (setting [4]); 5.33 with CMK (setting [13]). Further, the pEC50 is 5.12 with U937 (setting [5]) and 5.62 in the assay with ML2 (setting [6]).
